The source of these data is patent US5079247A, “N^1 -substituted benz(cd)indol-2-imine compounds as cardiovascular agents” (American Cyanamid Company, priority 1990, dated 1992).

For assay [1], the system named is KCl-induced cardiac arrhythmias, fibrillation and cardiac death in mice. Put plainly: Antiarrhythmic/antifibrillatory activity in anesthetized mice, potassium chloride challenge. The conditions noted are these: Mus musculus, iv, 0.25 h, potassium chloride 62.5 mg/kg i.v.; for responders at 10 mg/kg: Dose = 10 mg/kg I.V., 15 minutes observation, read-out: KCl Mice Surviving / Mice Tested (converted). It is filed as in vivo, mice of the Swiss Webster Strain. The source says: (§1) Intravenous administration of high doses of calcium or potassium chloride in animals produces cardiac arrhythmias, cardiac fibrillation and cardiac arrest. Any agent that can prevent these events is considered an antiarrhythmic/antifibrillatory agent. (Meth. and Find Exptl. Clin Pharmacal.2:223-252(1980); Pharmacol Ther. 24:401-433 (1984); Experimental Cardiac and Antiarrhythmic Drugs, L. Szekeres and Gy. J. Dapp, Akademiai Kiado Preso, Budapest, 9-448 (1971)).
(§2) The method employed is as follows: Male mice of the Swiss Webster Strain (Charles River, Wilmington, MA) weighing 25-35 g were anesthetized with ethyl carbamate (urethan) (1.5g/kg body weight i.p.). A 25-gauge needle attached to PE-20 tubing was inserted into a caudal vein for drug administration. The lead II ECG was recorded by needle electrodes placed subcutaneously in the limbs. All data were collected on a Gould Brush recorder. Animals were observed 5 minutes before drug administration. A 5, 15 or 30 minute period following drug administration was allowed before the bolus injection of calcium chloride, 200 mg/ kg i.v. or potassium chloride, 62.5 mg/kg i.v. Control mice received 4 ml/kg of 0.9% sodium chloride i.v. Mice were observed an additional 15 minutes for arrhythmias,fibrillation, survival or death. Any compound at a dose of less than 20 mg/kg i.v. in either test that protects from cardiac death 3 or more mice out of 6 mice, is considered active.

Assay [2] has as its system CaCl2-induced cardiac arrhythmias, fibrillation and cardiac death in mice. Put plainly: Antiarrhythmic/antifibrillatory activity in anesthetized mice, calcium chloride challenge. The following applies: Mus musculus, iv, 0.25 h, calcium chloride 200 mg/kg i.v., read-out: CaCl2 Mice Surviving / Mice Tested (converted); for responders at 10 mg/kg: Dose = 10 mg/kg I.V., 15 minutes observation. It is filed as in vivo, mice of the Swiss Webster Strain.
Description: as §1, §2

For assay [3], the system named is spontaneously hypertensive rats of the Okamoto strain. Briefly: Hypotensive activity in spontaneously hypertensive rats (method of Chan and Poorvin). It is filed as in vivo, rat. The conditions noted are these: by gavage, 100 mg/kg or less, two doses 24 hours apart; MABP at 28 hours after initial dose; average baseline MABP 160±1.5 mm of mercury. The method, then:
The novel compounds of the present invention are active hypotensive agents and were tested for hypotensive activity by the method of P. S. Chan and D. Poorvin, Clinical and Experimental Hypertension, 1 (6), 817-830 (1979). Male, 16 week old, spontaneously hypertensive rats of the Okamoto strain, from Taconic Farms, Germantown, New York, having an average mean arterial blood pressure of 160±1.5 mm of mercury, were used in the test. One to 3 rats were used per test compound. […] A second identical dose of the test compound, without sodium chloride loading was given 24 hours later. At 28 hours after the initial dose the mean arterial blood pressure (MABP) was measured. The procedure was repeated in a second and third rat when necessary.

Assay [4] has as its target T1, thromboxane synthetase enzyme (Rattus norvegicus, UniProt P49430).
T1 construct: The platelets were isolated by centrifuging the PRP for 10 minutes; from tissue; host or cells: washed platelets from arterial blood of Okamoto-Aoki spontaneously hypertensive rats (animals from Taconic Farms)
T1 sequence (P49430 1-533): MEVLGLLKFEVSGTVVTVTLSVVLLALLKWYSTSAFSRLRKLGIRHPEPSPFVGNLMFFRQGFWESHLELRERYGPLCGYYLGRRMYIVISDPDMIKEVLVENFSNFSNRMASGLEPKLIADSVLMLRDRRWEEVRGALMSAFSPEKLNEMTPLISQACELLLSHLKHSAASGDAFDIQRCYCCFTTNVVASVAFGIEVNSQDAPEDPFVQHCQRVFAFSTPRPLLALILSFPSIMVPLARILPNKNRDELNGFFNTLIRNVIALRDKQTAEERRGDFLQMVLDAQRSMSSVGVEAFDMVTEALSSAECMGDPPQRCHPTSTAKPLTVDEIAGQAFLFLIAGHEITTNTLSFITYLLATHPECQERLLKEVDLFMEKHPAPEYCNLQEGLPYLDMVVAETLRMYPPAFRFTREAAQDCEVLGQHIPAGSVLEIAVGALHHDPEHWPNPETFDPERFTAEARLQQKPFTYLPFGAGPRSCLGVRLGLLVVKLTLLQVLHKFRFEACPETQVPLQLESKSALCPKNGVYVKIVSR
Briefly: Thromboxane synthetase enzyme inhibition (TXB2 formation in platelet suspension, RIA). Format: cell-based, Okamoto-Aoki spontaneously hypertensive rats (SHR). The following applies: concentration 1 × 10^-4 M; SHR platelet suspension, 10 minutes at 37° C. As for the experimental part:
Under urethan anethesia, […] of arterial blood from Okamoto-Aoki spontaneously hypertensive rats (SHR) (Taconic Farms, Germantown, New York) between 19 and 24 weeks in age was collected in 1 ml of 3.2% sodium citrate in a polystyrene tube. The blood was diluted with 3 ml of cold saline and centrifuged at room temperature for 15 minutes at 460Xg. The platelet rich plasma (PRP) was separated. The platelets were isolated by centrifuging the PRP for 10 minutes at 1060Xg and were washed in 4 ml of cold oxygenated Krebs phosphate buffer, pH 7.4. The chilled platelets, recovered from centrifuging at 800Xg for 10 minutes, were resuspended in oxygenated Krebs phosphate buffer and diluted to contain 4.5-6.0×10^4 platelets/μl. The inhibition of thromboxane (TX) formation was studied by determining the concentration of thromboxane B2 (TXB2), the stable hydrolysis product of TXA2. Assay samples, prepared on ice, contained 200 μl platelet suspension, 50 μl saline, and 50 μl vehicle or drug under study at a concentration of 1×10^-4 M. The samples were incubated for 10 minutes at 37° C. in metabolic shaker. The reaction was terminated by immersing the tubes in an ice bath and adding 50 μl of 0.5M citric acid. The samples were centrifuged for 10 minutes in a refrigerated centrifuge and the supernatants thus obtained were decanted and stored at -20° C. The TXB2 content for each sample was determined by a direct radioimmunoassay (RIA) utilizing a TXB2 specific RIA kit purchased from New England Nuclear, Boston, Massachusetts and expressed as pg TXB2 formed minute^-1 sample^-1, from which the percent inhibition of TXB2 formation was calculated.

Molecules are shown by their SMILES.

In the case of `CCN(CC)CCNC(=O)c1ccc(N)cc1` [Procainamide, reference compound], the responders at 5 mg/kg in assay [1] (5 mg/kg i.v., read-out: KCl Mice Surviving / Mice Tested) stood at 70%.

Regarding `c1cc2c3c(cccc3c1)N(CCCN1C(=NCCCn3ccnc3)c3cccc4cccc1c34)C2=NCCCn1ccnc1` [Example 20, N,N'-[1,3-Propanediylbis(benz[cd]indol-1(2H)-ylidene)]bis-1H-imidazole-1-propanamine], the figures for the responders at 10 mg/kg in assay [2] and in assay [1] were 66.7% and 0%, respectively.

As to `CN1C(=NCCCCn2ccnc2)c2cccc3cccc1c23` [Example 22, N-(1-Methylbenz[cd]indol-2(1H)-ylidene)-1H-imidazole-1-butanamine], the “Avg. MABP in mm Hg (No. of Rats)” value in assay [3] turned out to be 112 mm Hg.

`N#CCCCCN1C(=NCCCn2ccnc2)c2cccc3cccc1c23` [Example 15, 2-[[3-(1H-Imidazol-1 yl)propyl]imino]benz[cd]indole-1(2H)-pentanenitrile] had an inhibition at 100 µM in assay [4] of 94%. Besides, the responders at 10 mg/kg in assay [2] is 16.7%; in assay [1], 50%.

On to `CCN(CC)CCN1C(=NCCCn2ccnc2)c2cccc3cccc1c23` [Example 17, N,N-Diethyl-2-[[3-(1H-imidazol-1-yl)propyl]imino]benz[cd]indole-1(2H)-ethanamine, (E)-2butenedioate (1:3)], for which the figures for the responders at 10 mg/kg in assay [2] and in assay [1] were 16.7% and 66.7%, respectively.

With `CCN(CC)CC(=O)Nc1c(C)cccc1C` [Lidocaine, reference compound], the responders at 10 mg/kg was 83.3% in assay [2] and 50% in assay [1].

Turning to `CN1C(=NCCCn2ccnc2)c2cccc3c(CO)ccc1c23` [Example 21, 1,2-Dihydro-2-[[3-(1H-imidazol-1-yl)propyl]imino]-1-methylbenz[cd]indole-6-methanol, (E)-2-butanedioate (1:1)], the responders at 10 mg/kg is 43.8% in assay [2] and 83.3% in assay [1].

For the compound `Cl.Cl.c1ccc(OCCCN2C(=NCCCn3ccnc3)c3cccc4cccc2c34)cc1` [Example 12, N-[1-(3-Phenoxypropyl)benz[cd]indol-2(1H)-ylidene]-1H-imidazole-1-propanamine, dihydrochloride], at 100 µM the inhibition in assay [4] was 90%. The “Avg. MABP in mm Hg (No. of Rats)” value in assay [3] came out at 122 mm Hg.

Consider `c1ccc(CN2C(=NCCCn3ccnc3)c3cccc4cccc2c34)cc1` [Example 6, N-[1-(Phenylmethyl)benz[cd]indol-2(1H)-ylidene]-1H-imidazole-1-propanamine,(E)-2-butenedioate (1:2)], for which the inhibition at 100 µM in assay [4] was 90%.

In assay [4], `CCCCCCN1C(=NCCCn2ccnc2)c2cccc3cccc1c23` [Example 16, N-(1-Hexylbenz[cd]indol-2(1H)-ylidene)-1H-imidazole 1-propanamine, (E)-2-butenedioate (1:2)] showed an inhibition at 100 µM of 94%.

Consider `CCCCCCN1C(=NCCCCc2cccnc2)c2cccc3cccc1c23` [Example 33, N-(1-Hexylbenz[cd]indol-2(1H)-ylidene)-3-pyridinebutanamine, (E)-2-butenedioate (2:3)], for which the inhibition at 100 µM in assay [4] stood at 93%.

Take `CN1C(=NCCCn2ccnc2)c2cccc3cccc1c23` [Example 18, N-[1-Methylbenz[cd]indol-2(1H)-ylidene]-1H-imidazole-1-propanamine, (E)-2-butenedioate (1:2)]: the responders at 10 mg/kg in assay [2] is 0%; in assay [1], 66.7%.

In assay [4], `CCN(CC)CCN1C(=NCc2cccnc2)c2cccc3cccc1c23` [Example 25, N,N-Diethyl-2-[(3-pyridinylmethyl)imino]benz[cd]indol-1(2H)ethanamine, (E)-2-butenedioate (2:3)] came in with an inhibition at 100 µM of 91%. Moreover, the responders at 10 mg/kg in assay [2] is 16.7%; in assay [1] it was 50%.

Turning to `c1ccc(C(c2ccccc2)N2C(=NCCCn3ccnc3)c3cccc4cccc2c34)cc1` [Example 7, N-[1 (Diphenylmethyl)benz[cd]indol-2(1H)-ylidene]-1H-imidazole-1 propanamine], the inhibition at 100 µM in assay [4] was determined as 75%. Further, the responders at 10 mg/kg in assay [2] is 16.7%; in assay [1], 83.3%.

Take `COc1cccc(CN2C(=NCCCn3ccnc3)c3cccc4cccc2c34)c1` [Example 14, N-[1-[(3Methoxyphenyl)methyl]benz[cd]indol-2(1H)-ylidene]-1H-imidazole-1-propanamine]: in assay [3], the “Avg. MABP in mm Hg (No. of Rats)” value was 104 mm Hg. Also, the values for the responders at 10 mg/kg in assay [2] and in assay [1] were 16.7% and 66.7%, respectively.

Regarding `c1ccc(CN2C(=NCCCn3ccnc3)c3cccc4cccc2c34)cc1` [Example 5, N-[1-(Phenylmethyl)benz[cd]indol-2 (1H)-ylidene]-1H-imidazole-1-propanamine], the responders at 10 mg/kg in assay [2] and in assay [1] was 83.3% each time.

With `c1ccc(CN2C(=NCCCCc3cccnc3)c3cccc4cccc2c34)cc1` [Example 29, N-[1-(Phenylmethyl)benz[cd]indol-2(1H)-ylidene]-3-pyridinebutanamine, (E)-2 butenedioate (1:2)], the responders at 10 mg/kg in assay [2] is 33.3%; in assay [1], 66.7%.

Turning to `c1ccc(C(c2ccccc2)N2C(=NCCCCc3cccnc3)c3cccc4cccc2c34)cc1` [Example 30], the responders at 10 mg/kg was 16.7% in assay [2] and 83.3% in assay [1].

`c1ccc(CCCN2C(=NCCCn3ccnc3)c3cccc4cccc2c34)cc1` [Example 13, N-[1-(3-Phenylpropyl)benz[cd]indol-2(1H)-ylidene]-1H-imidazole-1-propanamine, (E)-2-butenedioate (1:2)] registered an inhibition at 100 µM in assay [4] of 92%.

For the compound `C=C[C@H]1C[N@@]2CC[C@H]1C[C@@H]2[C@@H](O)c1ccnc2ccc(OC)cc12` [Quinidine, reference compound], the responders at 15 mg/kg is 75% in assay [2] (15 mg/kg i.v.) and 30% in assay [1] (15 mg/kg i.v., read-out: KCl Mice Surviving / Mice Tested).
